# Reference: patent publication US10207988B2, “Methods and compositions for treatment of cancer and autoimmune disease” (THE JACKSON LABORATORY, priority 2011, dated 2019)
# Columns and labels:
# [1] = test system: U251, HT-29 and A549 tumor cells; conditions: cited from earlier work
# [2] = test system: primary AID-knockout mouse splenocytes; assay: viability of activated AID-null splenocytes treated with NS-123 (Trypan blue); type: cell-based
# Method: Primary mouse B-cells were isolated from spleens of adult AID−/− mice as described in Example 1. Cultures were established at a concentration of 1×10^6 cells per ml in RPMI-1640 medium with 10% FBS. Cultures were activated with anti-CD40 antibody plus IL-4, and treated with 4′-Bromo-3′ nitropropiophenone (NS-123) (purchased from Calbiochem; CAS No. 101860-83-7) at concentrations of 0.5, 5, 50, or 500 μM. Cells were re-activated by anti-CD40 plus IL-4 after two days in culture. Cell counts were determined after 1, 2, 3, and 4 days in culture by Trypan blue staining. At the concentration of 50 μM and 500 μM of NS-123 AID-null splenocytes were not viable. At the concentration of 5 μM of NS-123 the viability of the splenocytes is reduced when compared to untreated splenocytes (FIG. 12).
# Primary AID-knockout mouse splenocytes were seeded in cultures at day 0 at a concentration of 1×10^6 cells/ml in RPMI-1640 medium supplemented with anti-CD40 plus IL-4 to activate B-cells. Individual cultures were supplemented with 0, 5, 10, 20, 30, 40, or 50 μM NS-123 and viable cells were counted after Trypan blue staining on days 1, 2, 3, and 4 (FIG. 13).
# [3] = test system: normal C57BL/6J splenic B-cells (AID+/+) versus splenic B-cells from AID−/− mice; assay: screening of DIDS derivatives, MultiTox-Fluor Multiplex Cytotoxicity Assay; type: cell-based, mouse; conditions: 10, 50 or 150 μM, 4 days of stimulation with anti-CD40 plus IL-4
# Method: To identify bioactive derivatives of DIDS, a library of 10^5 chemical variants of DIDS was generated by replacing the sulfonate or isothiocyanate group with other chemical entities, or by altering the double bond joining the two rings in the stilbene backbone. All compounds were resuspended in dimethyl sulfoxide (DMSO) at a stock concentration of […], and used by serial dilution to generate working concentrations of 10, 50, or 150 μM. These were individually pipetted into 96-well microtiter culture dishes in duplicate, generating two plates of 10 μM, two plates of 50 μM, and two plates of 150 μM compounds. In each set, one plate was seeded with 100,000 normal C57BL/6J splenic B-cells (AID+/+) isolated by magnetic bead based sorting to enrich for B220+ IgM+ B-cells; and one plate was seeded with 100,000 splenic B-cells from AID−/− mice identically isolated. Each culture was stimulated on day 0 by addition of 1 μg/ml anti-CD40 plus 25 ng/ml IL-4 to induce proliferation and class-switch recombination. After two days, each culture was re-stimulated by an additional 1 μg/ml anti-CD40 plus 25 ng/ml IL-4. After two additional days in culture, for a total of 4 days of stimulation, viable cell counts were determined in each well of each plate using the MultiTox-Fluor Multiplex Cytotoxicity Assay (Promega, Inc.). For viability measurements, 100 microliters of the 2× MultiTox-Fluor Multiplex Cytotoxicity Reagent was added to each well and mixed before incubating at 37° C. for 30 min. Plates were then transferred to a fluorescence-capable multiplate reader and analyzed using 400 nm excitation and detection of 505 nm emission to measure the fraction of remaining live cells. As controls, wells containing either vehicle alone (DMSO) or 150 μM DIDS were included on each plate. Viability scores for each compound were determined as the fraction of live cells in the normal B-cell plate divided by the fraction of live cells in the corresponding AID knockout plate. Compounds that produce normal/AID knockout ratios at or below the level of the DIDS ratio were considered candidate compounds for further validation and testing. […] The initial screen identified 10 derivatives, BB5-6, BB1-6, BB1-7, BB2-6, BB2-5, BB5-39, BB4B-2, BB5-4, BB5-47, and BB8-1 (FIG. 10).
smiles,measurement,setting,value
"CCC(=O)c1ccc(Br)c([N+](=O)[O-])c1 [NS-123, 1-(4-bromo-3-nitrophenyl)propan-1-one]",concentration enhancing tumor growth-inhibitory effects of ionizing radiation,"[1]; U251, HT-29 and A549 tumor cells",~5 µM
same,effect on normal cells and organisms,"[1]; normal human glial cells, Zebrafish embryos and nude mice",no apparent effect
same,viability of AID-null splenocytes,"[2]; 5 μM NS-123, compared to untreated splenocytes",reduced
same,viability of AID-null splenocytes,"[2]; 50 μM NS-123, activated with anti-CD40 plus IL-4",not viable
same,viability of AID-null splenocytes,"[2]; 500 μM NS-123, activated with anti-CD40 plus IL-4",not viable
same,LD50,"[2]; AID-null splenocytes, activated with anti-CD40 plus IL-4",14 µM
"CC(C)S(=O)(=O)Nc1ccc(/C=C/c2ccc(N(C)C)cc2)cc1 [BB2-6, (E)-N-(4-(4-(dimethylamino)styryl)phenyl)propane-2-sulfonamide]",viability score: fraction of live cells AID+/+ divided by fraction of live cells AID−/− (hit: ratio less than 1),[3],identified
"CCNC(=O)Nc1ccc(/C=C/c2ccc(NC(=O)COC)cc2S(=O)(=O)[O-])c(S(=O)(=O)[O-])c1.[Na+].[Na+] [BB5-47, sodium (E)-5-(3-ethylureido)-2-(4-(2-methoxyacetamido)-2-sulfonatostyryl)benzenesulfonate]",viability score: fraction of live cells AID+/+ divided by fraction of live cells AID−/− (hit: ratio less than 1),[3],identified
"CN(C)c1ccc(/C=C/c2ccc(NS(=O)(=O)C3CC3)cc2)cc1 [BB2-5, (E)-N-(4-(4-(dimethylamino)styryl)phenyl)cyclopropanesulfonamide]",viability score: fraction of live cells AID+/+ divided by fraction of live cells AID−/− (hit: ratio less than 1),[3],identified
"CC(=O)Nc1ccc(/C=C/c2ccc(NS(=O)(=O)C3CC3)cc2S(=O)(=O)[O-])c(S(=O)(=O)[O-])c1.[Na+].[Na+] [BB5-4, sodium (E)-5-acetamido-2-(4-(cyclopropanesulfonamido)-2-sulfonatostyryl)benzenesulfonate]",viability score: fraction of live cells AID+/+ divided by fraction of live cells AID−/− (hit: ratio less than 1),[3],identified
"CNC(=O)c1ccc(/C=C/c2ccc(C(=O)NC)cc2)cc1 [BB8-1, (E)-4,4′-(ethene-1,2-diyl)bis(N-methylbenzamide)]",viability score: fraction of live cells AID+/+ divided by fraction of live cells AID−/− (hit: ratio less than 1),[3],identified
"CC(=O)Nc1ccc(/C=C/c2ccc(NS(=O)(=O)N(C)C)cc2S(=O)(=O)[O-])c(S(=O)(=O)[O-])c1.[Na+].[Na+] [BB5-6, sodium (E)-5-acetamido-2-(4-((N,N-dimethylsulfamoyl)amino)-2-sulfonatostyryl)benzenesulfonate]",viability score: fraction of live cells AID+/+ divided by fraction of live cells AID−/− (hit: ratio less than 1),[3],identified
"CC(C)S(=O)(=O)Nc1ccc(/C=C/c2ccc(NC(=S)NC3CC3)cc2S(=O)(=O)[O-])c(S(=O)(=O)[O-])c1.[Na+].[Na+] [BB5-39, sodium (E)-5-(3-cyclopropylthioureido)-2-(4-(1-methylethylsulfonamido)-2-sulfonatostyryl)benzenesulfonate]",viability score: fraction of live cells AID+/+ divided by fraction of live cells AID−/− (hit: ratio less than 1),[3],identified
"CN(C)S(=O)(=O)Nc1ccc(/C=C/c2ccc(NS(=O)(=O)N(C)C)cc2)cc1 [BB1-7, (E)-N,N′-(ethene-1,2-diylbis(4,1-phenylene))bis(dimethylamino-sulfonamide)]",viability score: fraction of live cells AID+/+ divided by fraction of live cells AID−/− (hit: ratio less than 1),[3],identified
"CC(C)NC(=O)Nc1ccc(CCc2ccc(NC(=O)NC(C)C)cc2S(=O)(=O)[O-])c(S(=O)(=O)[O-])c1.[Na+].[Na+] [BB4B-2, sodium 6,6′-(ethane-1,2-diyl)bis(3-(3-isopropylureido)benzenesulfonate)]",viability score: fraction of live cells AID+/+ divided by fraction of live cells AID−/− (hit: ratio less than 1),[3],identified
"CC(C)S(=O)(=O)Nc1ccc(/C=C/c2ccc(NS(=O)(=O)C(C)C)cc2)cc1 [BB1-6, (E)-N,N′-(ethene-1,2-diylbis(4,1-phenylene))bis(propane-2-sulfonamide)]",viability score: fraction of live cells AID+/+ divided by fraction of live cells AID−/− (hit: ratio less than 1),[3],identified
